Among the test systems are A498 renal; KM12 colon; LOX IMVI melanoma; MDA-MB-435; NCI-H226 lung; NCI-H23 lung; NCI-H522 lung; NCI/ADR-RES ovarian; OVCAR-4 ovarian; PC-3 prostate; SF-268 CNS; SK-MEL-5 melanoma; SN12C renal; BT-549 breast; T-47D breast.
Common to all, as to experiment: NCI tumour cell line growth inhibition, 48 h

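These data come from cells grown in 96-well plates and exposed to compound for 48 hours at five concentrations. At the TGI there is no net growth.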

Turning to `COc1ccc(/C=C2\N=C(SC)N(CN3CCOCC3)C2=O)cc1`, the TGI with A498 renal, in the assay with KM12 colon, in the assay on LOX IMVI melanoma, in the assay on MDA-MB-435, in the assay on NCI-H226 lung and with NCI-H23 lung was greater than 100 µM throughout. The TGI is greater than 100 µM in the assay on NCI-H522 lung; greater than 100 µM in the assay on NCI/ADR-RES ovarian; 78.2 µM in the assay with OVCAR-4 ovarian; greater than 100 µM in the assay with PC-3 prostate; greater than 100 µM in the assay on SF-268 CNS; greater than 100 µM with SK-MEL-5 melanoma. In the assay with SN12C renal, this compound registered a TGI greater than 100 µM.

For the compound `CC1CCC(C(C)C)C(OC(=O)NCn2cc(-c3ccccc3)nn2)C1` (centres undefined), the TGI with BT-549 breast, with KM12 colon, with LOX IMVI melanoma, with NCI-H226 lung, with NCI-H23 lung and in the assay with NCI-H522 lung was greater than 100 µM each time. For the same compound, the TGI in the assay with NCI/ADR-RES ovarian, in the assay on OVCAR-4 ovarian, in the assay with PC-3 prostate, in the assay with SF-268 CNS, in the assay on SK-MEL-5 melanoma and in the assay on SN12C renal was greater than 100 µM each time.

As for `CN=C1CC2c3cc(OC)c(OC)cc3CCN2C2=C1C(=O)CC(C)(C)C2` (centres undefined), the TGI in the assay on A498 renal, in the assay with KM12 colon, in the assay with LOX IMVI melanoma, in the assay on NCI-H226 lung, with NCI-H23 lung and in the assay on NCI-H522 lung was greater than 100 µM each time. The TGI with SF-268 CNS, in the assay on SK-MEL-5 melanoma and in the assay on SN12C renal was greater than 100 µM each time.

As for `COC(=O)/C=C(\C)CC(O)/C=C(\C)CCC=C(C)C` (centres undefined), the TGI in the assay on A498 renal was greater than 100 µM; in the assay on BT-549 breast it was greater than 100 µM; in the assay on KM12 colon it was greater than 100 µM; with LOX IMVI melanoma it was greater than 100 µM; in the assay with NCI-H226 lung, greater than 100 µM; in the assay with NCI-H23 lung, 74.9 µM. The TGI in the assay on NCI/ADR-RES ovarian was 67.9 µM; in the assay with OVCAR-4 ovarian, greater than 100 µM; in the assay with PC-3 prostate, greater than 100 µM; in the assay with SK-MEL-5 melanoma, 42.7 µM; in the assay with SN12C renal, greater than 100 µM.

Take `Cc1ccc(-n2c(N)c(C#N)c3[nH]nc(N)c3c2=O)cc1`: the TGI in the assay on A498 renal, in the assay with KM12 colon, with LOX IMVI melanoma, with MDA-MB-435, in the assay with NCI-H226 lung and in the assay with NCI-H23 lung was greater than 100 µM in each case. Moreover, the TGI with NCI/ADR-RES ovarian, in the assay with OVCAR-4 ovarian, with PC-3 prostate, in the assay with SF-268 CNS, with SK-MEL-5 melanoma and with T-47D breast was greater than 100 µM throughout.

On to `N#C/C1=C(\N)CCSSSC1`, for which the TGI in the assay with A498 renal was 58 µM; with KM12 colon, greater than 100 µM; in the assay on LOX IMVI melanoma, greater than 100 µM; with NCI-H226 lung, 65.8 µM; in the assay with NCI-H23 lung, greater than 100 µM; in the assay on NCI-H522 lung, 45.6 µM. Also, the TGI in the assay with OVCAR-4 ovarian was greater than 100 µM; in the assay with SF-268 CNS, greater than 100 µM; in the assay with SK-MEL-5 melanoma, 60.9 µM; with SN12C renal, greater than 100 µM.

Consider `NNC(=O)c1n[nH]nc1C(=O)NN`, for which the TGI with BT-549 breast is 29.3 µM; with KM12 colon, greater than 100 µM; with MDA-MB-435 it was greater than 100 µM; with NCI-H23 lung, greater than 100 µM; with NCI/ADR-RES ovarian it was greater than 100 µM; in the assay with PC-3 prostate, greater than 100 µM. For the same compound, the TGI in the assay on SF-268 CNS, in the assay with SK-MEL-5 melanoma and with SN12C renal was greater than 100 µM each time.

Consider `O=C(O)[C@@H]1CCS(=O)(=O)N1`, for which the TGI with A498 renal, with KM12 colon, with LOX IMVI melanoma, in the assay with MDA-MB-435, with NCI-H23 lung and in the assay on NCI-H522 lung was greater than 100 µM throughout. Besides, the TGI with NCI/ADR-RES ovarian, in the assay on OVCAR-4 ovarian, with PC-3 prostate, in the assay with SF-268 CNS, in the assay on SK-MEL-5 melanoma and in the assay with SN12C renal was greater than 100 µM throughout. Also, the TGI in the assay on T-47D breast is greater than 100 µM.

In the case of `CC1CN(C(=O)CN2CCC(CCCCN(C)C)CC2)c2ccccc2NC1=O` (centres undefined), the TGI in the assay with A498 renal, in the assay on LOX IMVI melanoma, with NCI-H226 lung, in the assay with NCI-H23 lung, with OVCAR-4 ovarian and in the assay with SF-268 CNS was greater than 100 µM in each case. For the same compound, the TGI in the assay with SK-MEL-5 melanoma and in the assay on SN12C renal was greater than 100 µM throughout.

For the compound `CCCNC(=S)NNC(=O)CSc1nc(-c2ccccc2)c(-c2ccccc2)[nH]1`, the TGI was greater than 100 µM with A498 renal; greater than 100 µM with KM12 colon; greater than 100 µM in the assay on LOX IMVI melanoma; greater than 100 µM with NCI-H226 lung; greater than 100 µM in the assay on NCI-H23 lung; 78.1 µM in the assay with NCI-H522 lung. Besides, the TGI in the assay with OVCAR-4 ovarian was greater than 100 µM; in the assay on SF-268 CNS it was greater than 100 µM; in the assay with SK-MEL-5 melanoma it was 62.1 µM; in the assay on SN12C renal, greater than 100 µM.

Regarding `O=C1C(c2c(O)[nH]c3ccc(F)cc23)=Nc2ccccc21`, the TGI in the assay with BT-549 breast, in the assay with KM12 colon, in the assay with LOX IMVI melanoma, with MDA-MB-435, in the assay with NCI-H226 lung and in the assay with NCI-H23 lung was greater than 100 µM throughout. Also, the TGI with NCI-H522 lung, in the assay with NCI/ADR-RES ovarian, in the assay on PC-3 prostate, in the assay with SF-268 CNS, with SK-MEL-5 melanoma and with SN12C renal was greater than 100 µM in each case.

As for `Cc1ccccc1N1C(=O)C2C=CC(n3[nH]c(=O)n(Cc4ccccc4)c3=O)CC2C1=O` (centres undefined), the TGI in the assay on A498 renal, in the assay with KM12 colon, in the assay on LOX IMVI melanoma, with NCI-H226 lung, with NCI-H23 lung and in the assay with NCI-H522 lung was greater than 100 µM each time. In addition, the TGI with SF-268 CNS, in the assay with SK-MEL-5 melanoma and with SN12C renal was greater than 100 µM in each case.

Consider `Cn1c(=O)n(C2(C)C[Se]C2)c2ccccc21`, for which the TGI in the assay with A498 renal, in the assay on KM12 colon, with LOX IMVI melanoma, in the assay with NCI-H226 lung, in the assay on NCI-H23 lung and with NCI-H522 lung was greater than 100 µM each time. The TGI in the assay with OVCAR-4 ovarian, in the assay on SF-268 CNS, with SK-MEL-5 melanoma and in the assay on SN12C renal was greater than 100 µM each time.

For the compound `N#Cc1c2ccccc2cn1-c1ccc(F)cc1`, the TGI is 97.4 µM in the assay on KM12 colon; 55.6 µM in the assay on NCI-H226 lung; 56.2 µM in the assay with NCI-H23 lung; 43.2 µM with NCI-H522 lung; greater than 100 µM in the assay on OVCAR-4 ovarian; 99.5 µM in the assay on SF-268 CNS.

The record behind these values is PubChem BioAssay (NCI).
